Source: PMC11439681, “The identification of potent dual-target monopolar spindle 1 (MPS1) and histone deacetylase 8 (HDAC8) inhibitors through pharmacophore modeling, molecular docking, molecular dynamics simulations, and biological evaluation” (Frontiers in Pharmacology, 2024)

How the values were obtained:
Test in all cases: In vitro selectivity assay
Format in all cases: biochemical
Settings in all cases: selectivity panel
EPHA1 = target: T1, EPHA1 (Homo sapiens, UniProt P21709)
T1 construct: ICE Bioscience Inc. (assay service)
Procedure: (§1) The inhibitory effects of compound MPH-5 on a panel of 68 kinases and other histone deacetylases were evaluated to assess the selectivity profile of MPH-5. This experiment was conducted by ICE Bioscience Inc. (Beijing, China).

PIM1 = PIM1 (Homo sapiens, UniProt P11309)
Procedure: as §1

LTK = target: T2, LTK (Homo sapiens, UniProt P29376)
T2 construct: ICE Bioscience Inc. (contract assay provider)
Procedure: as §1

MUSK = target: T3, MUSK (Homo sapiens, UniProt O15146)
T3 construct: ICE Bioscience Inc. (contract assay provider)
Procedure: as §1

ZAK = ZAK (Homo sapiens, UniProt Q9NYL2)
Procedure: as §1

EPHA5 = target: T4, EPHA5 (Homo sapiens, UniProt P54756)
T4 construct: ICE Bioscience Inc. (assay service)
Procedure: as §1

EPHA7 = target: T5, EPHA7 (Homo sapiens, UniProt Q15375)
T5 construct: ICE Bioscience Inc. (assay service)
Procedure: as §1

BLK = target: T6, BLK (Homo sapiens, UniProt P51451)
T6 construct: ICE Bioscience Inc. (assay service)
Procedure: as §1

EPHB1 = target: T7, EPHB1 (Homo sapiens, UniProt P54762)
T7 construct: ICE Bioscience Inc. (assay service)
Procedure: as §1

PDGFRA = target: T8, PDGFRA (Homo sapiens, UniProt P16234)
T8 construct: ICE Bioscience Inc. (contract assay provider)
Procedure: as §1

Measured: IC50

T3 sequence (O15146 24-869): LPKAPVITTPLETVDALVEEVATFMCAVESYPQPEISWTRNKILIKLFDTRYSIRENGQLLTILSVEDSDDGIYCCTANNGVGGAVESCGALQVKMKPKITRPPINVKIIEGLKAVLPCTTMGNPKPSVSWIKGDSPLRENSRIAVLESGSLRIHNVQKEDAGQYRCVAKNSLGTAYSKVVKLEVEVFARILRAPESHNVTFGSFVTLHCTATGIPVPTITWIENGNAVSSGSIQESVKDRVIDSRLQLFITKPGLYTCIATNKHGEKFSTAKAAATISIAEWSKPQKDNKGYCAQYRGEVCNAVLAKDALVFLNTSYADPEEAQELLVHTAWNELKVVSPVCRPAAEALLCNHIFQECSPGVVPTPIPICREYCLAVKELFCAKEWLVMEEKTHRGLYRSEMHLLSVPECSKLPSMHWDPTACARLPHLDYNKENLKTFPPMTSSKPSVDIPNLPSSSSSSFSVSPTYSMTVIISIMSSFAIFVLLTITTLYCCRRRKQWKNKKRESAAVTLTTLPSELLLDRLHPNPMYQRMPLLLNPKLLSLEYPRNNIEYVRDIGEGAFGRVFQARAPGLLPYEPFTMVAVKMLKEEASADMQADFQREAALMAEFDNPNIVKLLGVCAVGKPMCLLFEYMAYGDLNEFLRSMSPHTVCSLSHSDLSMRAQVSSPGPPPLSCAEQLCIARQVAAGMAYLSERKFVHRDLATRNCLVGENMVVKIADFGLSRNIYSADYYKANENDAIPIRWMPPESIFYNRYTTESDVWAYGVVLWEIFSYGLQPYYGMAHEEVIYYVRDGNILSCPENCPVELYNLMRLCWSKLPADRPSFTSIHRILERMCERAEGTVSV
T7 sequence (P54762 18-984): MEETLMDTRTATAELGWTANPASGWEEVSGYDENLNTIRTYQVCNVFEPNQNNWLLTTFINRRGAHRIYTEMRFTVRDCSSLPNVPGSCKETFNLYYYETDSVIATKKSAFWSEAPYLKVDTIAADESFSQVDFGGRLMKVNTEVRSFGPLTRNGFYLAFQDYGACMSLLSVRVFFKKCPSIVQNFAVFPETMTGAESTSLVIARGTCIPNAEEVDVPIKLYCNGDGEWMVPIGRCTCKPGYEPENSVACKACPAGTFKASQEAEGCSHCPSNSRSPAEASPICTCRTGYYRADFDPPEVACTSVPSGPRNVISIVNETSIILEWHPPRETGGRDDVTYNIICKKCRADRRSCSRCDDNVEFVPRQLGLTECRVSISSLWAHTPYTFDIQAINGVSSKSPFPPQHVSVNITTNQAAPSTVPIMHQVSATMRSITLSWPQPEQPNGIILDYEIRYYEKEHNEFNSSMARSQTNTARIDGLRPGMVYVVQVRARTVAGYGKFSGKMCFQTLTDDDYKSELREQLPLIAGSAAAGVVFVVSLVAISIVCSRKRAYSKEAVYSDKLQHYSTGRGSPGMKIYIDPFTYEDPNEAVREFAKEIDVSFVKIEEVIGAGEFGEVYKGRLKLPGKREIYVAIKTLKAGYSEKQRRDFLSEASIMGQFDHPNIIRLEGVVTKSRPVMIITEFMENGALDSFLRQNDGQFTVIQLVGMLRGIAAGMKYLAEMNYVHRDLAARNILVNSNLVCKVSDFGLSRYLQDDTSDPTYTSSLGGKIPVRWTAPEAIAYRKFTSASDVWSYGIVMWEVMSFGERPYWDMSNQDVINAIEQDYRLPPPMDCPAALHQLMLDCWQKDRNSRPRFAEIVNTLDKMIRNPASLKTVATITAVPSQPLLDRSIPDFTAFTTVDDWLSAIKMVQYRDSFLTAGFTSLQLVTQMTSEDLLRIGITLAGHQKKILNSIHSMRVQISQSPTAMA
T6 sequence (P51451 whole entry): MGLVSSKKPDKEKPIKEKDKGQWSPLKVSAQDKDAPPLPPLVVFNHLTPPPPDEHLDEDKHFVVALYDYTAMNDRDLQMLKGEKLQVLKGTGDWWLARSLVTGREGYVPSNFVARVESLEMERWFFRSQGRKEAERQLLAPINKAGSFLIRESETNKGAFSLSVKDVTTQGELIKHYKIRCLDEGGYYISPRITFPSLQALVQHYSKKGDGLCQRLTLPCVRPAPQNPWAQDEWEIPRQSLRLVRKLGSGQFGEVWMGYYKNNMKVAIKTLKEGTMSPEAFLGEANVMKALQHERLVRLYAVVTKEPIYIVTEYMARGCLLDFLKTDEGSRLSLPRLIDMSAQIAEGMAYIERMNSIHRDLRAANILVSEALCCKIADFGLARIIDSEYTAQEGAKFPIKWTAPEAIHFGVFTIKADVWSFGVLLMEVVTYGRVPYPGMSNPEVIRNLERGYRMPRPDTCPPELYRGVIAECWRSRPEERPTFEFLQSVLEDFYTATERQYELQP
T8 sequence (P16234 24-1089): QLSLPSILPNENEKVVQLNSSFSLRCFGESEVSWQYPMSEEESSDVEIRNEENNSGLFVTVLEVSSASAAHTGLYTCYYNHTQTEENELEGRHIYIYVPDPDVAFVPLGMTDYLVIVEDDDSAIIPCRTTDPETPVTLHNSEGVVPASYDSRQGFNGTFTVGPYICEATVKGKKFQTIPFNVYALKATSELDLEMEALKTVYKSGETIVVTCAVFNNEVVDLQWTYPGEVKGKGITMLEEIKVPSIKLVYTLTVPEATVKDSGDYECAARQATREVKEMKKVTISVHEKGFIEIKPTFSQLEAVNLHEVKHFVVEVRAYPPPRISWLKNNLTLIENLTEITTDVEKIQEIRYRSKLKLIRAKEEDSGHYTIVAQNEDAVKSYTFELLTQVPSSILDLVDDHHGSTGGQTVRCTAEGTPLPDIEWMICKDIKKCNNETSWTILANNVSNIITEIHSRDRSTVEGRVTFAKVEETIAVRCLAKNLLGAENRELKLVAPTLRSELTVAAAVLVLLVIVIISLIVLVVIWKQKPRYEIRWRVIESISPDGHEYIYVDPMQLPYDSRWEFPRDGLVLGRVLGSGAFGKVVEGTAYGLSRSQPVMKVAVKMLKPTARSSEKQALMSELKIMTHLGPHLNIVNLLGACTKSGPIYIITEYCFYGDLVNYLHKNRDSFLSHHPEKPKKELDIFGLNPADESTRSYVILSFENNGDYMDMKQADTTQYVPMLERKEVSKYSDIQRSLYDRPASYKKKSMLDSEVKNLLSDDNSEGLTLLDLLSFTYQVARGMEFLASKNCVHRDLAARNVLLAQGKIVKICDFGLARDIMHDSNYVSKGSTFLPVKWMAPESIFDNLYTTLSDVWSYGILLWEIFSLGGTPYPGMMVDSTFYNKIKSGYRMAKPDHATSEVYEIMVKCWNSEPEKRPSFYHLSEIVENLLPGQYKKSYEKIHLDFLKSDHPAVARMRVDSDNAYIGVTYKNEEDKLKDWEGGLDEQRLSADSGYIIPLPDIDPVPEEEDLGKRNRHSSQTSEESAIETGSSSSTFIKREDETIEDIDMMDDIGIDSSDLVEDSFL
PIM1, sequence (P11309 whole entry): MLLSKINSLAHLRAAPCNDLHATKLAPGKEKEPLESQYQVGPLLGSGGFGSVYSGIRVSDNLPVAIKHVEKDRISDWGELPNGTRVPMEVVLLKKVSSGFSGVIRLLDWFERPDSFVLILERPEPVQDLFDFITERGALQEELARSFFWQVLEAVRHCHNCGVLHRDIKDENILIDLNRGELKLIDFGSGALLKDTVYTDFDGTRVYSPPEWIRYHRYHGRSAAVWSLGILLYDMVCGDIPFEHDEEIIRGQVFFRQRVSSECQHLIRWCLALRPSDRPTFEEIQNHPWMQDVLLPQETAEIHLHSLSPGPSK
ZAK, sequence (Q9NYL2 whole entry): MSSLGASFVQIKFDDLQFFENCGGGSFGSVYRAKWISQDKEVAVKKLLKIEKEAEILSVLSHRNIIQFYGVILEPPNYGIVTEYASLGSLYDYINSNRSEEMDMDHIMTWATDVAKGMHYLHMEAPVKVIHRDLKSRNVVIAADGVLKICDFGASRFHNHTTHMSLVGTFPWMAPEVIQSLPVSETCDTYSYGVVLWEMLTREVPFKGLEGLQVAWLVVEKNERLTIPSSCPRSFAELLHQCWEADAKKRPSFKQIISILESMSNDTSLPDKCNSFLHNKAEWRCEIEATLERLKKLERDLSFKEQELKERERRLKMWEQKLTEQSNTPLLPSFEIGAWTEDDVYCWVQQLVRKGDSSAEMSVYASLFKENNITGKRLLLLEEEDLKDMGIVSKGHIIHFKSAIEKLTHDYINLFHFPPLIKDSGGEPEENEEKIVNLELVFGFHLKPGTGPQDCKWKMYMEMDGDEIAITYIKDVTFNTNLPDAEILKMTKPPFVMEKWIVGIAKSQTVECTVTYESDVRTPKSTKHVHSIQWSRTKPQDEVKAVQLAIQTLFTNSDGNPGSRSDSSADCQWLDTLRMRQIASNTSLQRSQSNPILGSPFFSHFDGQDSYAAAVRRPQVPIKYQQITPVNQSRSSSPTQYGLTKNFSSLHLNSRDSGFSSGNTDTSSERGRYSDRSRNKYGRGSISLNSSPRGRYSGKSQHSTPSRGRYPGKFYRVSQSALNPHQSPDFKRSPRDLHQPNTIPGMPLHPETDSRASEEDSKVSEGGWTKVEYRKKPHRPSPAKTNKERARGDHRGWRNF

Cn1cc(-c2cc3cnc(Nc4ccc(-c5cncn5/C=C/C(=O)NO)cc4Cl)cc3n2C(=O)OC(C)(C)C)cn1 [MPH-5]
> 10 µM: all assays above
